Experimental data: US20190001106A1, “THERAPEUTIC DELIVERY DEVICE” (priority 2013, published 2019)

Assay: preservation of doxorubicin efficacy in the implanted construct
Format: in vivo
Conditions: in STID-Dox-PLGA85/15 construct, 3 weeks inside an animal body about 37C

COc1cccc2c1C(=O)c1c(O)c3c(c(O)c1C2=O)C[C@@](O)(C(=O)CO)C[C@@H]3O[C@H]1C[C@H](N)[C@H](O)[C@H](C)O1 [doxorubicin, Doxorubicin]
efficacy of doxorubicin after residence in the construct: efficacy is still preserved
